One series addresses T1, Substance-K receptor (Homo sapiens, UniProt P21452).
T1 sequence (P21452 whole entry): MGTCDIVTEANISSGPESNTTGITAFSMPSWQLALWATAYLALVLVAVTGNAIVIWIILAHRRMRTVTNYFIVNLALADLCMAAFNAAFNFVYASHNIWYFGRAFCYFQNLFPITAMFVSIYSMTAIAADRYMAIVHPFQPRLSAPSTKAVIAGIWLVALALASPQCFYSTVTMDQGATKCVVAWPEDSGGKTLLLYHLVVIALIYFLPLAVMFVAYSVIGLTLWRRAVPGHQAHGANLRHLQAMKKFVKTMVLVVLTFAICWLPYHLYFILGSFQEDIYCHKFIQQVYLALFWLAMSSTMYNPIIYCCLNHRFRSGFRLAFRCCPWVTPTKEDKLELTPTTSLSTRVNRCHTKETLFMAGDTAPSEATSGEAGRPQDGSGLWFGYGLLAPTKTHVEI
In kind it is cell membranes, CHO, Membrane. The note with it: for Ki: read-out: Ki.

The target of series [1] is T2, Vasoactive intestinal polypeptide receptor 1 (Homo sapiens, UniProt P32241). Further: in other assays of this panel Not Active means under 50% inhibition at 10 µM.
T2 sequence (P32241 whole entry): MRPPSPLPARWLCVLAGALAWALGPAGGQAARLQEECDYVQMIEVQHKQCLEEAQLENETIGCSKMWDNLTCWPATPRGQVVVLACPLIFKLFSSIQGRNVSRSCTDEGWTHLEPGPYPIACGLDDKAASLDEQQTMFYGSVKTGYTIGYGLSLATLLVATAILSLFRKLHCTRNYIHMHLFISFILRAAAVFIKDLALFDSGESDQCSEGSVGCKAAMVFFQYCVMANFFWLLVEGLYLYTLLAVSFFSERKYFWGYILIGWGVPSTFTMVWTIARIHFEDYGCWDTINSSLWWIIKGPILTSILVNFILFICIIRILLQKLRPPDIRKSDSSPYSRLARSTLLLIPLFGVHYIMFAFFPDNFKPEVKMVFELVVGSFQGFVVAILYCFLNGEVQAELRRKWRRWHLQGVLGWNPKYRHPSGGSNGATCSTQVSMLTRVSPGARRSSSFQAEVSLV
It is filed as cell membranes, Membrane. The note with it: ht-29.

The target in series [2] is C-C chemokine receptor type 2 (Homo sapiens, UniProt P41597). In kind it is cell membranes, CHO-K1, Membrane. The note with it: cho-k1. Further: in other assays of this panel Not Active means under 50% inhibition at 10 µM.
The target in a further series is Glycine receptor (Rattus norvegicus, UniProt P22771+P24524+P07727+P20781). It is filed as cell membranes, Wistar, Spinal cord, Membrane. Further: in other assays of this panel Not Active means under 50% inhibition at 10 µM.
The next series addresses T3, Progesterone receptor (Bos taurus, UniProt Q690N0).
T3 sequence (Q690N0 whole entry): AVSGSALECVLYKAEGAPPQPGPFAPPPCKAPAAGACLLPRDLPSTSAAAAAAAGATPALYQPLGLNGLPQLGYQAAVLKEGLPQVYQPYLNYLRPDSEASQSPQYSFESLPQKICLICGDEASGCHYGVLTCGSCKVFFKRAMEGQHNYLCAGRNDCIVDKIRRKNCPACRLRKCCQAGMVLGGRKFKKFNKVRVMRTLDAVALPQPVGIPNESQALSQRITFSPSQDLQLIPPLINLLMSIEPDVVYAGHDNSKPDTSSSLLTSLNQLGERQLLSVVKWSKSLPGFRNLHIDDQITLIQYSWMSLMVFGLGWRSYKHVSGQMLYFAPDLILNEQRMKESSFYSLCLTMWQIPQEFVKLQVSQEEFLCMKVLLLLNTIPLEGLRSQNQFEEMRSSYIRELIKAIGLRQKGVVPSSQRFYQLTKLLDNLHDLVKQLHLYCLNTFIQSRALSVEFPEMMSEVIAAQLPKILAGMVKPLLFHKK
Description: DRUGMATRIX: Progesterone radioligand binding (ligand: [3H] R-5020). In kind it is tissue-based, Uterus. The note with it: Not Active = under 50% inhibition at 10 µM.

The next series has as its target T4, Neutrophil elastase (Homo sapiens, UniProt P08246).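 Further: inhibition of neutrophil elastase enzyme activity, measured with a p-nitroanilide-linked peptide substrate; in other assays of this panel Not Active means under 50% inhibition at 10 µM.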
T4 sequence (P08246 whole entry): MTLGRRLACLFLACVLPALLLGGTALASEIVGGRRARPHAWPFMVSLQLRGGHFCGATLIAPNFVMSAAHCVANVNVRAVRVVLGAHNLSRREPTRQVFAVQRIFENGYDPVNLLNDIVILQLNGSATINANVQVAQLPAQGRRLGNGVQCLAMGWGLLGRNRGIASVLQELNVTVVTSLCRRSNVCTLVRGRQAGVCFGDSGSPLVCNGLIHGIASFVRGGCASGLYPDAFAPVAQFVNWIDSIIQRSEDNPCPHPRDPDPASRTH
It is filed as tissue-based.

The target of series [3] is Receptor tyrosine-protein kinase erbB-2 (Homo sapiens, UniProt P04626). Kind of series: biochemical. It is filed as cell-based, Insect cells. The note with it: insect cells.
Series [4] has as its target T5, 5-hydroxytryptamine receptor 1A (Rattus norvegicus, UniProt P19327). Further: in other assays of this panel Not Active means under 50% inhibition at 10 µM.
T5 sequence (P19327 whole entry): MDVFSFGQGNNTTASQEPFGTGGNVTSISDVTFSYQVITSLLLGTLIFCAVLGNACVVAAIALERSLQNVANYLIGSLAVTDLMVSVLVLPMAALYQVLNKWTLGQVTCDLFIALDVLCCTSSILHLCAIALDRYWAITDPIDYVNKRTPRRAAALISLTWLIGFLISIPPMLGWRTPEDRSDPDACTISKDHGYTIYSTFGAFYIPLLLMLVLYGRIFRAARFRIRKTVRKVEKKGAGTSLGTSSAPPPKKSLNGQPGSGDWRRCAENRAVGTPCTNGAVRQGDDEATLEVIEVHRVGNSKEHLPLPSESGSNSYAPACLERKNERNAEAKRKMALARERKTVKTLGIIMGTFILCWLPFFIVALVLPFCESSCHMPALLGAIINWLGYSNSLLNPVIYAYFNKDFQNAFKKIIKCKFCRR
In kind it is cell membranes, Membrane. Particulars: cho-k1.

For a further series, the target named is Cytochrome P450 2E1 (Homo sapiens, UniProt P05181). The note with it: bti-tn-5b1-4. Further: in other assays of this panel Not Active means under 50% inhibition at 10 µM.
In series [5] the target is Sodium-dependent noradrenaline transporter (Homo sapiens, UniProt P23975). Kind of series: DRUGMATRIX: Norepinephrine Transporter radioligand binding (ligand: [125I] RTI-55). It is filed as cell membranes, MDCK, Membrane. The note with it: mdck; Not Active = under 50% inhibition at 10 µM.
Another series concerns the target D(1A) dopamine receptor (Homo sapiens, UniProt P21728). Kind of series: DRUGMATRIX: Dopamine D1 radioligand binding (ligand: [3H] SCH-23390). In kind it is cell membranes, Membrane. The note with it: cho; Not Active = under 50% inhibition at 10 µM.
Series [6] is described as follows: DRUGMATRIX: Glutamate, NMDA, Phencyclidine radioligand binding (ligand: [3H] TCP). The note with it: Not Active = under 50% inhibition at 10 µM. It is filed as cell membranes, Rattus norvegicus, Wistar, Cerebral cortex, Membrane.

Chain of C-C chemokine receptor type 2 (P41597 whole entry): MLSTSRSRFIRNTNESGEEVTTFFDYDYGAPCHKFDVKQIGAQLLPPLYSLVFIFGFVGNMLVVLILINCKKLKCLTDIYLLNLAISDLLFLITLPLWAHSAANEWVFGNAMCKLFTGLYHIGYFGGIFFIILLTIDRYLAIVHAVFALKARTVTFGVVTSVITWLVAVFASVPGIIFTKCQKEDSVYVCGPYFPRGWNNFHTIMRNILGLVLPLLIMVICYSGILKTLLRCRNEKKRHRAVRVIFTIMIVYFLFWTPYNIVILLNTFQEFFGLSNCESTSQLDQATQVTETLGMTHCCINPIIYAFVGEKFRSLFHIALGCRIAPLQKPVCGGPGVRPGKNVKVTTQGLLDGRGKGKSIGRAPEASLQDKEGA
Chain of D(1A) dopamine receptor (P21728 whole entry): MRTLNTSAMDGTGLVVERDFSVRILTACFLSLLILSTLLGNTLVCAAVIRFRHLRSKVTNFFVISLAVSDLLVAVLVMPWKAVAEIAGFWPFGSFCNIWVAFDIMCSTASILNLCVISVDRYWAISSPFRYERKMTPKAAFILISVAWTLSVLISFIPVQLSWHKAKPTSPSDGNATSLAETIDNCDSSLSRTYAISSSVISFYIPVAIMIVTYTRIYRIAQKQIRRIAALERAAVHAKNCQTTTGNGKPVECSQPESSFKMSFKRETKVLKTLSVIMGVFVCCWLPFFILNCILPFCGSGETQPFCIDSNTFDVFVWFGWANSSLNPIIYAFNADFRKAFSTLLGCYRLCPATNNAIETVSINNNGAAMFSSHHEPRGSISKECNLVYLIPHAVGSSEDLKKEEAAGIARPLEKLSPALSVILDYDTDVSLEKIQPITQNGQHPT
Chain of Receptor tyrosine-protein kinase erbB-2 (P04626 whole entry): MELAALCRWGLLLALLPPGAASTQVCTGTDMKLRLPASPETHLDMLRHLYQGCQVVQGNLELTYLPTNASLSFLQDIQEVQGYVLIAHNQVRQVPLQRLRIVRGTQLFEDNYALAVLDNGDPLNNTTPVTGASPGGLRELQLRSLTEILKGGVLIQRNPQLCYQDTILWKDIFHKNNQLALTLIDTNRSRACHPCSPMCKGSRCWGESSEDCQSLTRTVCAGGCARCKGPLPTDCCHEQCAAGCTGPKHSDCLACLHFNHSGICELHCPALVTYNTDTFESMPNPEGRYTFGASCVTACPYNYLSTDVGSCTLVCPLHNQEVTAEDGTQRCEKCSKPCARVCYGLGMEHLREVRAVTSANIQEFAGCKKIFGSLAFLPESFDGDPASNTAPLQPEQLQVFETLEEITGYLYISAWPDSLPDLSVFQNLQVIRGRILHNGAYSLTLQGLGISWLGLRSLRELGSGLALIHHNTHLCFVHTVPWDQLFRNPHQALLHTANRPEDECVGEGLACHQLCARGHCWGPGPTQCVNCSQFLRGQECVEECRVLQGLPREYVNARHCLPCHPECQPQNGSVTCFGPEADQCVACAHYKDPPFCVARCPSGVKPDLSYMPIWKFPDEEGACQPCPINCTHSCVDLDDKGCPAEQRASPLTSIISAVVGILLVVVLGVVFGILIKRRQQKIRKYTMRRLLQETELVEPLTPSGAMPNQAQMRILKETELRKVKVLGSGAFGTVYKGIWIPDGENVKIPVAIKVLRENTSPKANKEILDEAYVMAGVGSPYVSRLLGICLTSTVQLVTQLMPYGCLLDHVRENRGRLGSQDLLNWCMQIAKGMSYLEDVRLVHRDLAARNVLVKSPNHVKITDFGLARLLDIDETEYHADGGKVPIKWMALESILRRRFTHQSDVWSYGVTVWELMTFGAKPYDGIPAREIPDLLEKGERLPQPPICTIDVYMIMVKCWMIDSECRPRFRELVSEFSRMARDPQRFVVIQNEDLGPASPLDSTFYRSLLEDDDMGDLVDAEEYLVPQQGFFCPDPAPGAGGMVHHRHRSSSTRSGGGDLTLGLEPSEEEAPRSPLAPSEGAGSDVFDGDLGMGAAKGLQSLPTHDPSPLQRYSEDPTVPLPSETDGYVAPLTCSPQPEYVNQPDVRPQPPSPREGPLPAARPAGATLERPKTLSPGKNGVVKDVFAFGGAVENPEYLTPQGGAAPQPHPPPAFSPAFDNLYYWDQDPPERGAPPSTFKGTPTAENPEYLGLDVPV
Chain of Sodium-dependent noradrenaline transporter (P23975 whole entry): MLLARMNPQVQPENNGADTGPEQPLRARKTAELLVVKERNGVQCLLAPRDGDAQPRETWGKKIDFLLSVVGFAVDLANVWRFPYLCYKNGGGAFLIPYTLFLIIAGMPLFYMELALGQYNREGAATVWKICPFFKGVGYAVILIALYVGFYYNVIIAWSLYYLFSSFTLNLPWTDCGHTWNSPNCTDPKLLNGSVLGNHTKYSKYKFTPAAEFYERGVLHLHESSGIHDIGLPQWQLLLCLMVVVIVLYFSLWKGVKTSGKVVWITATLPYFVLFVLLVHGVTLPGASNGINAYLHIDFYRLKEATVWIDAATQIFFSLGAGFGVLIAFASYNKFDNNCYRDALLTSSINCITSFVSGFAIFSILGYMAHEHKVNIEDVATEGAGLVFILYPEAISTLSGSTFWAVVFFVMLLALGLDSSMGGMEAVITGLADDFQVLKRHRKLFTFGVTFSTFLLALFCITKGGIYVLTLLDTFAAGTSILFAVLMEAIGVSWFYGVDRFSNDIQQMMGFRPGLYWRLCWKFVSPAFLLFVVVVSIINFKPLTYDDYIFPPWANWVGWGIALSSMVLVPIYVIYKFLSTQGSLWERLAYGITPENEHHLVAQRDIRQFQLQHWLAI
Chain of Cytochrome P450 2E1 (P05181 whole entry): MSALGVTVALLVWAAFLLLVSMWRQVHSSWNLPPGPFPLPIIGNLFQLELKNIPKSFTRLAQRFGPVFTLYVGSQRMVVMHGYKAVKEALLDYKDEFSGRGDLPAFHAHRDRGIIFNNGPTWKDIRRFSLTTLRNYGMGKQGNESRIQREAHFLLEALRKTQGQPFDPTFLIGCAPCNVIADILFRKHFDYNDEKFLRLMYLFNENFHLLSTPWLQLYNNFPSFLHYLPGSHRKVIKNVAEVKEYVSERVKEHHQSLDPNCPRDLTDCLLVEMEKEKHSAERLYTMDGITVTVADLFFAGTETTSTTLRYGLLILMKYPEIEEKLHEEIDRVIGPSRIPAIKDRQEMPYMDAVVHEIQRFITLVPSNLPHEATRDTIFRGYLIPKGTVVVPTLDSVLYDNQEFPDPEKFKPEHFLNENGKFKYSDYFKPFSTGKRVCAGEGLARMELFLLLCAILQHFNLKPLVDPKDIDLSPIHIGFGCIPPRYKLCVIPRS

In general, IC50 refers to the concentration that gives 50% inhibition. By Ki is commonly meant a dissociation constant, usually derived from enzyme kinetics or from competition with a known ligand. With `Clc1ccc2c(c1)C(N1CCNCC1)=Nc1ccccc1O2` [AMOXAPINE], the IC50 entry (on Substance-K receptor (cho); in series [1]; in [2]; at Glycine receptor; at Progesterone receptor; against Neutrophil elastase) was “Not Active” throughout. Moreover, the IC50 entry (in series [3]; in series [4]; on Cytochrome P450 2E1) was “Not Active” throughout. Moreover, the Ki entry at Cytochrome P450 2E1 is “Not Active”.

Take `COc1cc2c(c(OC)c1OC)-c1ccc(OC)c(=O)cc1[C@@H](NC(C)=O)CC2` [COLCHICINE]: the IC50 result (in series [5]; against Substance-K receptor (cho); in series [1]; in series [2]; on Glycine receptor; on Progesterone receptor) was “Not Active” throughout. The IC50 result (against Neutrophil elastase; in [3]; in series [4]; on Cytochrome P450 2E1) was “Not Active” in each case. Moreover, on Cytochrome P450 2E1, the Ki entry was “Not Active”.

As for `CN1CCC(=C2c3ccccc3C=Cc3ccccc32)CC1` [CYPROHEPTADINE], the IC50 result (against Substance-K receptor (cho); in [1]; in series [2]; at Glycine receptor; at Progesterone receptor; against Neutrophil elastase) was “Not Active” each time. For the same compound, the IC50 entry (in series [3]; at Cytochrome P450 2E1) was “Not Active” throughout. Besides, the Ki entry on Cytochrome P450 2E1 is “Not Active”.

Regarding `CC/C(=C(/CC)c1ccc(O)cc1)c1ccc(O)cc1` [DIETHYLSTILBESTROL], the IC50 at Substance-K receptor (read-out: IC50) is 9.55 µM; in series [1], “Not Active”; in [2], “Not Active”; on Glycine receptor, “Not Active”; on Neutrophil elastase, “Not Active”; in [3], “Not Active”. Besides, the IC50 entry (in [4]; against Cytochrome P450 2E1) was “Not Active” in each case. The results for the Ki at Substance-K receptor, on Progesterone receptor (read-out: Ki) and at Cytochrome P450 2E1 were 3.18 µM, 0.611 µM and “Not Active”, respectively.

With `C=CCN1CC[C@]23c4c5ccc(O)c4O[C@H]2C(=O)CC[C@@]3(O)[C@H]1C5` [NALOXONE], the IC50 result (in series [5]; against Substance-K receptor (cho); in series [1]; in series [2]; on Glycine receptor; at Progesterone receptor) was “Not Active” throughout. For the same compound, the IC50 result (against Neutrophil elastase; in series [3]; in series [4]) was “Not Active” each time.

On to `COCCOC(=O)C1=C(C)NC(C)=C(C(=O)OC(C)C)C1c1cccc([N+](=O)[O-])c1` (stereo unspecified) [NIMODIPINE], for which the IC50 result (in series [5]; against Substance-K receptor (cho); in series [1]; in [2]; on D(1A) dopamine receptor; in series [6]) was “Not Active” each time. The IC50 entry (against Glycine receptor; on Progesterone receptor; against Neutrophil elastase; in series [3]; in series [4]) was “Not Active” in each case. In series [6], the Ki entry was “Not Active”.

For `CC(C)NCC(O)COc1cccc2ccccc12` (stereo unspecified) [PROPRANOLOL], the IC50 result (against Substance-K receptor (cho); in series [1]; in [2]; against Glycine receptor; at Progesterone receptor; on Neutrophil elastase) was “Not Active” each time. The IC50 entry (in series [3]; against Cytochrome P450 2E1) was “Not Active” in each case. Besides, the Ki result on Cytochrome P450 2E1 is listed as “Not Active”.

`O=C(c1ccc(OCCN2CCCCC2)cc1)c1c(-c2ccc(O)cc2)sc2cc(O)ccc12` [RALOXIFENE]: the IC50 is 3.99 µM on Substance-K receptor (read-out: IC50); “Not Active” in series [1]; “Not Active” in series [2]; “Not Active” in series [6]; “Not Active” on Glycine receptor; “Not Active” at Progesterone receptor. Also, the IC50 entry (against Neutrophil elastase; in series [3]; in series [4]; on Cytochrome P450 2E1) was “Not Active” in each case. For the same compound, the figures for the Ki (on Substance-K receptor; in [6]; at Cytochrome P450 2E1) were 1.33 µM, “Not Active” and “Not Active”, respectively.

Consider `CC(C)c1nc(CN(C)C(=O)N[C@H](C(=O)N[C@@H](Cc2ccccc2)C[C@H](O)[C@H](Cc2ccccc2)NC(=O)OCc2cncs2)C(C)C)cs1` [RITONAVIR], for which the IC50 result (in [5]; in [1]; in series [2]; at D(1A) dopamine receptor; in series [6]; against Glycine receptor) was “Not Active” throughout. For the same compound, the IC50 result (on Progesterone receptor; against Neutrophil elastase; in [3]; in series [4]) was “Not Active” each time. For the same compound, the Ki result in series [6] is “Not Active”.

`CC(C)CC(N(C)C)C1(c2ccc(Cl)cc2)CCC1` (stereo unspecified) [SIBUTRAMINE]: the IC50 entry (against Substance-K receptor (cho); in [1]; in [2]; on D(1A) dopamine receptor; in series [6]; on Glycine receptor) was “Not Active” throughout. The IC50 entry (at Progesterone receptor; on Neutrophil elastase; in [3]; in [4]; at Cytochrome P450 2E1) was “Not Active” throughout. The Ki result (in series [6]; at Cytochrome P450 2E1) was “Not Active” throughout.

Turning to `CC(C)(C)c1ccc(C(O)CCCN2CCC(C(O)(c3ccccc3)c3ccccc3)CC2)cc1` (stereo unspecified) [TERFENADINE], the IC50 on Substance-K receptor (read-out: IC50) was 2.68 µM; in [1], “Not Active”; in series [2], “Not Active”; in series [6] it was “Not Active”; on Glycine receptor it was “Not Active”; at Progesterone receptor, “Not Active”. For the same compound, the IC50 entry (on Neutrophil elastase; in [3]; in [4]; at Cytochrome P450 2E1) was “Not Active” each time. In addition, the Ki at Substance-K receptor was 0.892 µM; in series [6] it was “Not Active”; on Cytochrome P450 2E1, “Not Active”.

These data come from ChEMBL document CHEMBL1909046, “DrugMatrix in vitro pharmacology data”.
